In brackets after ≈: the same amount, converted by molar mass. Several values for one entry are separate records, joined by “and”; a condition that tells them apart may be missing. Equal entries are not always repeated. Where two headings read alike, the source gives them in different places.

For one data set, the system named is M. avium CNCTC My 152/73. In words: In vitro antimycobacterial microdilution panel method. The data set is classed as cell-based. The conditions noted are these: Mycobacterium avium, 336 h; CNCTC My 152/73, pH 6.0, 14 days.
In a further data set the test system is M. avium CNCTC My 80/72. The description is as above. The class given is cell-based. The conditions noted are these: Mycobacterium avium, 336 h; CNCTC My 80/72, pH 6.0, 14 days.
Data set [1] relates to M. tuberculosis H37Rv CNCTC My 331/88. The data set is described as above. The data set is classed as cell-based. Particulars: Mycobacterium tuberculosis, 336 h.
Data set [2] has as its system M. kansasii CNCTC My 235/80. The description is as above. The data set is classed as cell-based. The conditions noted are these: Mycobacterium kansasii, 144 h; CNCTC My 235/80, pH 6.0, 6 days.
Data set [3] is described as follows: HPLC lipophilicity determination (capacity factor k / log k). Particulars: RP-HPLC, C18, MeOH 70%/H2O 30%, 30 °C.
Protocol: The separation process was controlled by Agilent ChemStation, version B.04.02 extended by spectral module (Agilent Technologies Inc.). A solution of MeOH (HPLC grade, 70%) with H2O (HPLC-Milli-Q Grade, 30%) was used as mobile phase. The total flow of the column was 1.0 mL/min, injection 20 µL, column temperature 30 °C. 210 nm as detection wavelength and 270 nm as monitor wavelength were chosen. The KI methanol solution was used for the dead time (TD) determination. Retention times (TR) of synthesized compounds were measured in minutes. The capacity factors k were calculated using Microsoft Excel according to formula k = (TR − TD)/TD, where TR is the retention time of the solute and TD denotes the dead time obtained via an unretained analyte. Log k, calculated from the capacity factor k, is used as the lipophilicity index converted to log P scale.
Data set [4] has as its system aromatic amino acids in the proteins of spinach chloroplasts situated in PS 2. In words: Fluorescence of aromatic amino acids in spinach chloroplasts. The class given is biochemical, Spinacia oleracea L. The conditions noted are these: λex = 275 nm, 0-0.11 mmol/L. The text has this:
Figure 4 presents fluorescence emission spectra of aromatic amino acids of untreated spinach chloroplasts and of chloroplasts treated with increasing concentrations of compound 6 (see Figure 4A) as well as dependence of fluorescence intensity of chlorophyll a on concentration of compounds 2 (squares), 11 (triangles) and 6 (circles) (see Figure 4B). Binding of these compounds to aromatic amino acids occurring in photosynthetic proteins contribute to PET inhibition. The fluorescence emission spectra of chlorophyll a (Chla) and aromatic amino acids in spinach chloroplasts were recorded on fluorescence spectrophotometer F-2000 (Hitachi, Tokyo, Japan) using excitation wavelength λex = 436 nm for monitoring fluorescence of Chla and λex = 275 nm for monitoring fluorescence of aromatic amino acids, excitation slit 20 nm and emission slit 10 nm. The samples were kept in the dark 2 min before measuring. The phosphate buffer used for dilution of the chloroplast suspension was the same as described above. Due to low aqueous solubility the compounds were added to a chloroplast suspension in DMSO solution. The DMSO concentration in all samples was the same as in the control (10%). The chlorophyll concentration in chloroplast suspension was 10 mg/L.

Data set [5] deals with Trichophyton mentagrophytes 445. In words: In vitro antifungal microdilution broth method. The data set is classed as cell-based. Particulars: RPMI 1640 pH 7.0, 35 °C, read-out: TM MIC. On the procedure: The Department of Medical and Biological Sciences at the Faculty of Pharmacy in Hradec Králové, Charles University in Prague, Czech Republic, performed the antifungal susceptibility assays, which was carried out using microdilution broth method. Compounds were dissolved in DMSO and diluted in a twofold manner with RPMI 1640 medium with glutamine buffered to pH 7.0 (3-morpholinopropane-1-sulfonic acid). […] Drug-free controls were included. […] The MICs were determined after 24 and 48 h, respectively after 72 and 120 h for Trichophyton mentagrophytes (TM), of static incubation in dark at 35 °C. Tested species: […]

Data set [6] deals with photosynthetic electron transport (PET) in spinach chloroplasts. In words: Inhibition of photosynthetic electron transport (oxygen evolution rate) in spinach chloroplasts. The data set is classed as biochemical, Spinacia oleracea L. Particulars: DCPIP photoreduction, pH 7.2. On the procedure: All studied compounds were evaluated for their photosynthetic electron transport (PET) inhibition in spinach chloroplasts, which was reflected in the inhibition of oxygen evolution rate. The photosynthesis-inhibiting activity of the compounds has been expressed as IC50 values. Compounds 4, 5, 7 and 8 were not tested due to their low solubility in tested medium.
Chloroplasts were prepared from spinach (Spinacia oleracea L.) according to Masarovičová and Kráľová [31]. The inhibition of photosynthetic electron transport (PET) in spinach chloroplasts was determined spectrophotometrically (Genesys 6, Thermo Scientific, Madison, WI, USA) using an artificial electron acceptor 2,6-dichlorophenol-indophenol (DCPIP) according to Kráľová et al. and the rate of photosynthetic electron transport (PET) was monitored as a photo-reduction of DCPIP. The measurements were carried out in a phosphate buffer (0.02 mol/L, pH 7.2) containing sucrose (0.4 mol/L), MgCl2 (0.005 mol/L) and NaCl (0.015 mol/L). The chlorophyll content was 30 mg/L in these experiments and the samples were irradiated (~100 W/m^2) from a 10 cm distance with halogen lamp (250 W) using a 4 cm water filter to prevent warming of the samples (suspension temperature 22 °C). The studied compounds were dissolved in DMSO due to their limited water solubility. […] The inhibitory efficiency of the studied compounds was expressed as the IC50 values, i.e., molar concentration of the compounds causing 50% decrease in the oxygen evolution relative to the untreated control.

For data set [7] the test system is unchanged. Also on record: method as in earlier work. Particulars: standard, read-out: IC50 (PET inhibition); cited from earlier work.

For the compound `O=C(NCc1cccc(C(F)(F)F)c1)c1cncc(Cl)n1` [Compound 6, 6-Chloro-N-(3-trifluoromethylbenzyl)pyrazine-2-carboxamide], the MIC worked out at 100 µg/mL (≈ 317 µM) against M. avium CNCTC My 152/73; 25 µg/mL (≈ 79.2 µM) against M. avium CNCTC My 80/72; 39 µM in [1] (MIC with respect to molecular weight, Šula's medium pH 6.0, 14 days, read-out: MIC M. tuberculosis H37Rv (value in parentheses)); 12.5 µg/mL in [1] (Šula's medium pH 6.0, 37 °C, 14 days, read-out: MIC M. tuberculosis H37Rv); 100 µg/mL (≈ 317 µM) in data set [2]; 62.5 µM (≈ 19.7 µg/mL) in data set [5] (Trichophyton mentagrophytes, 445, 72 h, pH 7, evaluated after 72 h). Moreover, the MIC in data set [5] (Trichophyton mentagrophytes, 445, 120 h, pH 7, evaluated after 120 h) was found to be 125 µM (≈ 39.5 µg/mL). In [3], this compound displayed a log k of 0.4507. The “fluorescence of aromatic amino acids” value in data set [4] is given as “quenching of their fluorescence at 334 nm”. In [6], the IC50 came out at 1210 µM.

In the case of `CN(C)C(=O)Nc1ccc(Cl)c(Cl)c1` [DCMU, 3-(3,4-dichlorophenyl)-1,1-dimethylurea], in data set [7], the IC50 was ~1.9 µM and 1.9 µM.

Values taken from PMC6268022, “Substituted N-Benzylpyrazine-2-carboxamides: Synthesis and Biological Evaluation ^†” (Molecules, 2012).
